Assay results: patent US4009273A, “Substituted 10,11-dihydro-5,10-imino-[5H] dibenzo (a,d)-cycloheptene” (priority 1972, dated 1977)

Experiments:
[1] = test system: reserpine ptosis of the eyelid; test: Antidepressant activity: antagonism of reserpine eyelid ptosis; format: in vivo, rats; settings: 1 h before 1 mg/kg reserpine
Description: The antidepressant activity was determined by antagonism exercised by the compounds against the depressant activity of reserpine and this effect was determined by ptosis of the eyelid test codified by Rubin [J. Pharm. Exp. Ther., Vol. 120 (1957), p. 125]. The eyelid ptosis test is used to make a quantitative evaluation of the condition of the animal, but the antagonism exercised equally against the neuro depressive symptoms of reserpine; immobility, adynamia, hypothermia, myosis, etc. The reading was effected every hour for 6 hours after intraperitoneal injection of 1 mg/kg of reserpine to groups of rats who had one hour previously received intraperitoneally a variable dose of the test compounds. The ptosis provoked by the reserpine injection was diminished by the previous injection of the test compounds, all the more so at the elevated doses. The results were expressed as a percentage of protection compared to controls which received only reserpine and are reported in Table IV.

[2] = Acute toxicity; settings: mouse, in vivo, ip, Swiss mice, observed for a week
Description: The acute toxicity was determined on groups of Swiss mice weighing 18 to 22 g and the test products were administered intraperitoneally in increasing doses and the animals were kept under observation for a week.

[3] = test system: DOPA; test: Potentialization of DOPA; format: in vivo, mice (male); settings: 1 h before 50 mg/kg DOPA
Description: In this test, DOPA [racemic β-(3,4-dihydroxyphenyl)-alanine] was administered to mice pretreated with 1-isonicotinoyl-2-isopropyl-hydrazine18 hours before the test which product caused the following symptoms: hypertonicity, agitation, crying, aggressiveness, salivation and exophthalmia. The administration of an antidepressant one hour before the DOPA injection potentializes the intensity of the effects.
Male mice weighing between 18 to 22 g received intraperitoneally 50 mg/kg of 1-isonicotinoyl-2-isopropyl-hydrazine and 18 hours later the test product intraperitoneally in aqueous solution in increasing doses and 1 hour later received an intraperitoneal injection of 50 mg/kg of DOPA. The different effects were evaluated 15 and 30 minutes after the DOPA injection and each symptom was evaluated for each animal on a scale from 0 to 3 and the evaluations for each dose was totaled. The totals are reported in Table III as a percent of the total of control animals.

[4] = test system: amytal sleeping time; test: Potentialization of sleeping time (amytal); format: in vivo, mice (female); settings: 1 h before 80 mg/kg amytal i.v.
Description: The potentialization of sleeping time was determined with a test using amytal [5-ethyl-5-isoamyl-barbituric acid] in which groups of female mice weighing between 18 and 22 g were kept at 25° C for the duration of the test. The test products were administered intraperitoneally at different doses one hour before intraveinous injection of 80 mg/kg of amytal and the sleeping time was noted which is the time while the reflux of straightening in the mice was negative.

Compound | % Protection ([1]; 2 mg/Kg i.p.) | % Protection ([1]; 10 mg/Kg i.p.) | % Protection ([1]; 20 mg/Kg i.p.) | % Protection ([1]; 50 mg/Kg i.p.) | LD50 at 168 h [2] | total symptom score as percent of the total of control animals ([3]; 10 mg/Kg i.p.) | total symptom score as percent of the total of control animals ([3]; 20 mg/Kg i.p.) | average sleeping time ([4]; 5 mg/Kg i.p.) | average sleeping time ([4]; 10 mg/Kg i.p.) | average sleeping time ([4]; 20 mg/Kg i.p.) | average sleeping time ([4]; 50 mg/Kg i.p.) | total symptom score as percent of the total of control animals ([3]; 50 mg/Kg i.p.)
CNCCN1C2Cc3ccccc3C1c1ccccc12 (stereo not drawn) [Example 28, 12-(2'-methylaminoethyl)-10,11-dihydro-5,10-imino-[5H]-dibenzo (a,d) cycloheptene dl] | 10% | 43% | 60% | 84% | ~150 mg/kg |  |  |  |  |  |  | 
NCCN1C2Cc3ccccc3C1c1ccccc12 (stereo not drawn) [Example 30, 12-(2'-aminoethyl)-10,11-dihydro-5,10-imino-[5H]-dibenzo (a,d) cycloheptene dl] | 18% | 38% | 69% | 74% | ~150 mg/kg | 113% | 150% | 46.3 min | 38.1 min | 64.1 min | 89.0 min | 
CN(C)CCN1C2Cc3ccccc3C1c1ccccc12 (stereo not drawn) [Example 29, 12-(2'-dimethylaminoethyl)-10,11-dihydro-5,10-imino-[5H]-dibenzo (a,d) cycloheptene dl] | 9% | 40% | 39% | 66% | ~180 mg/kg | 81% | 101% |  |  |  |  | 177%
